The text below walks through data of patent US12435060B2, “Acylamino bridged heterocyclic compound, and composition and application thereof” (BEIJING SCITECH-MQ PHARMACEUTICALS LIMITED, priority 2019, dated 2025).

Structures are written as SMILES. pIC50: −log10 of the molar value. Where only a bound is given, the exact number is not on record here.

This test deals with HT29 cells. The test can be described thus: Inhibition of cell necrosis (CCK8 method), induced programmed necrosis of HT29 cells. In kind it is cell-based. To be noted: Homo sapiens, HT-29; rescue from necrosis induced by TNF-α 20 ng/mL, AT-406 1 μM, Z-VAD-FMK 20 μM; 16-20 hours; CCK-8, OD 450 nm. The essentials: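 Rescue from programmed necrosis was scored by CCK-8 absorbance at 450 nm after 16-20 h of TNF-α (20 ng/mL), AT-406 (1 μM) and Z-VAD-FMK (20 μM) at 37 °C, 5% CO2. HT29 cells had received compound 30 min earlier across nine 4-fold dilutions (top 25000 nM final). IC50 came from % inhibition relative to uninduced and induced-only wells.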
Background: Tetrazolium dyes change colour on reduction, which living cells bring about.

The term pIC50 denotes the IC50 on a negative log10 scale, so that one unit is a factor of ten. A higher pIC50 goes with a small IC50. Consider `O=C(Nc1cc(-c2cc(OCCC3CCOCC3)ccc2C(F)(F)F)ncn1)c1nnc(Cc2ccccc2)[nH]1` [Example 458, 5-benzyl-N-(6-(5-(2-(tetrahydro-2H-pyran-4-yl)ethoxy)-2-(trifluoromethyl)phenyl)pyrimidin-4-yl)-4H-1,2,4-triazole-3-carboxamide], for which the pIC50 was no less than 7.00.

`O=C(Nc1cc(-c2cc(OCCC3CCOCC3)ccc2C(F)(F)F)ncn1)c1nnc(Cc2ccccc2F)[nH]1` [Example 459, 5-(2-fluorobenzyl)-N-(6-(5-(2-(tetrahydro-2H-pyran-4-yl)ethoxy)-2-(trifluoromethyl)phenyl)pyrimidin-4-yl)-4H-1,2,4-triazole-3-carboxamide] showed a pIC50 of no less than 7.00.

With `O=C(Nc1cc(-c2cc(OCCC3CCOCC3)ccc2C(F)(F)F)ncn1)c1nnc(CC2CCCC2)[nH]1` [Example 460, 5-(cyclopentylmethyl)-N-(6-(5-(2-(tetrahydro-2H-pyran-4-yl)ethoxy)-2-(trifluoromethyl)phenyl)pyrimidin-4-yl)-4H-1,2,4-triazole-3-carboxamide], the pIC50 is no less than 7.00.

On to `O=C(Nc1cc(-c2cc(OCCC3CCOCC3)ccc2C(F)(F)F)ncn1)c1nnc(CC2CCCCC2)[nH]1` [Example 461, 5-(cyclohexylmethyl)-N-(6-(5-(2-(tetrahydro-2H-pyran-4-yl)ethoxy)-2-(trifluoromethyl)phenyl)pyrimidin-4-yl)-4H-1,2,4-triazole-3-carboxamide], for which the negative logarithm of the IC50 (pIC50) is no less than 7.00.

Molecule `CC(C)(O)CCCOc1ccc(Cl)c(-c2cc(NC(=O)c3nnc(Cc4ccccc4)[nH]3)ncn2)c1` [Example 462, 5-benzyl-N-(6-(2-chloro-5-((4-hydroxy-4-methylpentyl)oxy)phenyl)pyrimidin-4-yl)-4H-1,2,4-triazole-3-carboxamide] gave a pIC50 of no less than 7.00.

In the case of `CC(C)(O)CCCOc1ccc(Cl)c(-c2cc(NC(=O)c3nnc(Cc4ccccc4F)[nH]3)ncn2)c1` [Example 463, 5-(2-fluorobenzyl)-N-(6-(2-chloro-5-((4-hydroxy-4-methylpentyl)oxy)phenyl)pyrimidin-4-yl)-4H-1,2,4-triazole-3-carboxamide], the pIC50 was no less than 7.00.

Molecule `CC(C)(O)CCCOc1ccc(Cl)c(-c2cc(NC(=O)c3nnc(CC4CCCC4)[nH]3)ncn2)c1` [Example 464, 5-(cyclopentylmethyl)-N-(6-(2-chloro-5-((4-hydroxy-4-methylpentyl)oxy)phenyl)pyrimidin-4-yl)-4H-1,2,4-triazole-3-carboxamide] showed a negative logarithm of the IC50 (pIC50) of no less than 7.00.

The molecule `CC(C)(O)CCCOc1ccc(Cl)c(-c2cc(NC(=O)c3nnc(CC4CCCCC4)[nH]3)ncn2)c1` [Example 465, 5-(cyclohexylmethyl)-N-(6-(2-chloro-5-((4-hydroxy-4-methylpentyl)oxy)phenyl)pyrimidin-4-yl)-4H-1,2,4-triazole-3-carboxamide] had a negative logarithm of the IC50 (pIC50) of no less than 7.00.

As for `O=C(Nc1cc(-c2cc(OCC3CCOCC3)ccc2Cl)ncn1)c1nnc(Cc2ccccc2)[nH]1` [Example 466, 5-benzyl-N-(6-(2-chloro-5-((tetrahydro-2H-pyran-4-yl)methoxy)phenyl)pyrimidin-4-yl)-4H-1,2,4-triazole-3-carboxamide], the negative-log IC50 (pIC50) was no less than 7.00.

The molecule `O=C(Nc1cc(-c2cc(OCC3CCOCC3)ccc2Cl)ncn1)c1nnc(Cc2ccccc2F)[nH]1` [Example 467, 5-(2-fluorobenzyl)-N-(6-(2-chloro-5-((tetrahydro-2H-pyran-4-yl)methoxy)phenyl)pyrimidin-4-yl)-4H-1,2,4-triazole-3-carboxamide] gave a negative logarithm of the IC50 (pIC50) of no less than 7.00.

For `O=C(Nc1cc(-c2cc(OCC3CCOCC3)ccc2Cl)ncn1)c1nnc(CC2CCCC2)[nH]1` [Example 468, 5-(cyclopentylmethyl)-N-(6-(2-chloro-5-((tetrahydro-2H-pyran-4-yl)methoxy)phenyl)pyrimidin-4-yl)-4H-1,2,4-triazole-3-carboxamide], the pIC50 was no less than 7.00.

Regarding `O=C(Nc1cc(-c2cc(OCC3CCOCC3)ccc2Cl)ncn1)c1nnc(CC2CCCCC2)[nH]1` [Example 469, 5-(cyclohexylmethyl)-N-(6-(2-chloro-5-((tetrahydro-2H-pyran-4-yl)methoxy)phenyl)pyrimidin-4-yl)-4H-1,2,4-triazole-3-carboxamide], the negative-log IC50 (pIC50) was no less than 7.00.

As to `O=C(Nc1cc(-c2cc(OCCC3CCOCC3)ccc2Cl)ncn1)c1nnc(Cc2ccccc2)[nH]1` [Example 470, 5-benzyl-N-(6-(2-chloro-5-(2-(tetrahydro-2H-pyran-4-yl)ethoxy)phenyl)pyrimidin-4-yl)-4H-1,2,4-triazole-3-carboxamide], the pIC50 is no less than 7.00.

The molecule `O=C(Nc1cc(-c2cc(OCCC3CCOCC3)ccc2Cl)ncn1)c1nnc(Cc2ccccc2F)[nH]1` [Example 471, N-(6-(2-chloro-5-(2-(tetrahydro-2H-pyran-4-yl)ethoxy)phenyl)pyrimidin-4-yl)-5-(2-fluorobenzyl)-4H-1,2,4-triazole-3-carboxamide] had a negative logarithm of the IC50 (pIC50) of no less than 7.00.

In turn, `O=C(Nc1cc(-c2cc(OCCC3CCOCC3)ccc2Cl)ncn1)c1nnc(CC2CCCC2)[nH]1` [Example 472, N-(6-(2-chloro-5-(2-(tetrahydro-2H-pyran-4-yl)ethoxy)phenyl)pyrimidin-4-yl)-5-(cyclopentylmethyl)-4H-1,2,4-triazole-3-carboxamide] showed a pIC50 of no less than 7.00.

As to `O=C(Nc1cc(-c2cc(OCCC3CCOCC3)ccc2Cl)ncn1)c1nnc(CC2CCCCC2)[nH]1` [Example 473, N-(6-(2-chloro-5-(2-(tetrahydro-2H-pyran-4-yl)ethoxy)phenyl)pyrimidin-4-yl)-5-(cyclohexylmethyl)-4H-1,2,4-triazole-3-carboxamide], the negative-log IC50 (pIC50) is no less than 7.00.

Turning to `Cc1ccc(S(=O)(=O)CCCC(C)(C)O)cc1-c1ccnc(NC(=O)c2nnc(Cc3ccccc3)[nH]2)c1` [Example 474, 5-benzyl-N-(4-(5-((4-hydroxy-4-methylpentyl)sulfonyl)-2-methylphenyl)pyridin-2-yl)-4H-1,2,4-triazole-3-carboxamide], the pIC50 is 6.00 to 7.00.

As to `Cc1ccc(S(=O)(=O)CCCC(C)(C)O)cc1-c1ccnc(NC(=O)c2nnc(CC3CCCC3)[nH]2)c1` [Example 475, 5-(cyclopentylmethyl)-N-(4-(5-((4-hydroxy-4-methylpentyl)sulfonyl)-2-methylphenyl)pyridin-2-yl)-4H-1,2,4-triazole-3-carboxamide], the pIC50 is no less than 7.00.

`CC(C)(O)CCCOc1ccc(Cl)c(-c2ccnc(NC(=O)c3nnc(C(O)c4ccccc4F)[nH]3)c2)c1` (stereo not drawn) [Example 476, N-(4-(2-chloro-5-((4-hydroxy-4-methylpentyl)oxy)phenyl)pyridin-2-yl)-5-((2-fluorophenyl)(hydroxyl)methyl)-4H-1,2,4-triazole-3-carboxamide] showed a negative-log IC50 (pIC50) of 6.00 to 7.00.

`CC(C)(O)CCCOc1ccc(Cl)c(-c2ccnc(NC(=O)c3nnc([C@H](O)c4ccccc4)[nH]3)c2)c1` [Example 477, (R)-N-(4-(2-chloro-5-((4-hydroxy-4-methylpentyl)oxy)phenyl)pyridin-2-yl)-5-(hydroxyl(phenyl)methyl)-4H-1,2,4-triazole-3-carboxamide]: the pIC50 is 5.00 to 6.00.

In the case of `CC(C)(O)CCCOc1ccc(Cl)c(-c2ccnc(NC(=O)c3nnc([C@@H](O)c4ccccc4)[nH]3)c2)c1` [Example 478, (S)-N-(4-(2-chloro-5-((4-hydroxy-4-methylpentyl)oxy)phenyl)pyridin-2-yl)-5-(hydroxyl(phenyl)methyl)-4H-1,2,4-triazole-3-carboxamide], the pIC50 is 6.00 to 7.00.
